Reference: the NIST ThermoML archive (doi:10.1021/je700140j)

Experiment: refractive index (Na D-line) (dimensionless); xn = mol fraction of the nth substance listed
Conditions: 100.8 kPa, Liquid, Standard Abbe refractometry

OCCc1ccccc1 [2-phenylethanol] + CC(C)O
refractive index
Conditions	298.15 K	308.15 K	318.15 K
x2 = 0	1.53269	1.52852	1.52427
x2 = 0.05	1.52795	1.52391	1.51972
x2 = 0.1	1.523	1.51896	1.51478
x2 = 0.15	1.5178	1.51375	1.50956
x2 = 0.2	1.51235	1.50826	1.50405
x2 = 0.25	1.50661	1.50253	1.49832
x2 = 0.3	1.50063	1.49652	1.49228
x2 = 0.35	1.49437	1.49025	1.48598
x2 = 0.4	1.4878	1.48365	1.47938
x2 = 0.45	1.48091	1.47673	1.47245
x2 = 0.5	1.47367	1.4695	1.46522
x2 = 0.55	1.46611	1.46193	1.45763
x2 = 0.6	1.45816	1.45395	1.44964
x2 = 0.65	1.44975	1.44553	1.4412
x2 = 0.7	1.44087	1.43664	1.4323
x2 = 0.75	1.43149	1.42725	1.4229
x2 = 0.8	1.42156	1.41733	1.41297
x2 = 0.85	1.411	1.40678	1.40239
x2 = 0.9	1.39973	1.39547	1.39112
x2 = 0.95	1.38776	1.38342	1.37903

OCCc1ccccc1 [2-phenylethanol] + OCc1ccccc1
refractive index
Conditions	298.15 K	308.15 K	318.15 K
x2 = 0	1.53269	1.52852	1.52427
x2 = 0.05	1.53322	1.52911	1.52495
x2 = 0.1	1.53367	1.52961	1.52549
x2 = 0.15	1.5341	1.53006	1.52594
x2 = 0.2	1.53454	1.5305	1.52636
x2 = 0.25	1.53495	1.53089	1.52674
x2 = 0.3	1.53532	1.53125	1.5271
x2 = 0.35	1.53568	1.53159	1.52745
x2 = 0.4	1.53601	1.53193	1.52777
x2 = 0.45	1.53633	1.53225	1.52809
x2 = 0.5	1.53663	1.53255	1.52839
x2 = 0.55	1.53689	1.53281	1.52864
x2 = 0.6	1.53712	1.53304	1.52888
x2 = 0.65	1.53733	1.53325	1.5291
x2 = 0.7	1.53752	1.53344	1.52929
x2 = 0.75	1.53772	1.53362	1.52947
x2 = 0.8	1.53789	1.53377	1.52961
x2 = 0.85	1.53804	1.53391	1.52973
x2 = 0.9	1.53819	1.53403	1.52984
x2 = 0.95	1.53833	1.53414	1.52993

OCc1ccccc1 [benzenemethanol] + CC(C)O
refractive index
Conditions	298.15 K	308.15 K	318.15 K
x2 = 0	1.53843	1.53421	1.52994
x2 = 0.05	1.53277	1.52858	1.52435
x2 = 0.1	1.52684	1.52268	1.51849
x2 = 0.15	1.5207	1.51654	1.51233
x2 = 0.2	1.5143	1.51019	1.50598
x2 = 0.25	1.50772	1.50359	1.49935
x2 = 0.3	1.50089	1.49674	1.4925
x2 = 0.35	1.49383	1.48966	1.48542
x2 = 0.4	1.48652	1.48234	1.47809
x2 = 0.45	1.47899	1.4748	1.47053
x2 = 0.5	1.47118	1.46698	1.46269
x2 = 0.55	1.4631	1.45889	1.45458
x2 = 0.6	1.45472	1.4505	1.44616
x2 = 0.65	1.44605	1.44182	1.43746
x2 = 0.7	1.43707	1.43283	1.42848
x2 = 0.75	1.42774	1.4235	1.41916
x2 = 0.8	1.41804	1.4138	1.40943
x2 = 0.85	1.40795	1.40368	1.39933
x2 = 0.9	1.39746	1.39319	1.38883
x2 = 0.95	1.38648	1.38219	1.3778
